For data set [1], the system named is MES-induced convulsions in mice. The experiment in a line: Anticonvulsive activity: maximal electroshock (MES) test. In kind it is in vivo. The settings on record: i.p., Table 8, 30 min. How it is done:
(§1) NMR female mice (18-28 g) housed 5 per cage were used for the maximal electroshock (MES) and motor impairment tests. […] All compounds were dissolved in 0.9% saline.
(§2) The MES test was performed together with tests for myorelaxant action (traction reflex) and motor coordination (rotarod). For the traction reflex test mice were placed with their forepaws on a horizontal rod and were required to place all 4 paws on the wire within 10 seconds. To test ataxia (motor coordination) mice were placed on rotarod (5 rpm) and were required to remain on the rod for 1 minute. […] These tests were followed by MES (100 Hz, 0.5 second shock duration, 50 mA shock intensity, 0.9 ms impulse duration, Ugo Basile) applied through corneal electrodes. The presence of tonic convulsions was scored (tonic extension of hind paws with minimum angle to the body of 90°). The aim was to obtain ED50 s for all parameters scored (anticonvulsive activity and motor side effects) with use of the Litchfield Wilcoxon test for quantal dose responses. Division of the ED50 for side effects (ataxia or myorelaxation) by the ED50 for antagonism of electroshock convulsions was used as a therapeutic index (TI).
(§3) Pearson product moment correlation analysis (Sigma Stat, Jandel Scientific) was used to compare in vitro potencies and in vivo anticonvulsant activity.
(In general: The maximal electroshock test induces tonic seizures with an electrical stimulus.)

Data set [2] relates to NMDA receptor. The settings on record: clinical / human use; cited from earlier work.
For a further data set, the system named is traction reflex in mice. As to the kind of experiment: Traction reflex test (myorelaxant action). Type of data set: in vivo. Conditions: i.p., Table 8. On the procedure: as §1
as §2, with “(TI). […]” for “(TI).”

Data set [3] has as its system rotarod performance in mice. The experiment in a line: Rotarod test (motor coordination, ataxia). The settings on record: i.p., Table 8. In kind it is in vivo. How it is done: (§4) All compounds were dissolved in 0.9% saline.
as §2, §3
In general terms: The rotarod test checks motor coordination on a turning rod.

For data set [4] the following is noted: i.p.; Table 8.
Another data set relates to cortical neurones. The experiment in a line: Excitotoxicity: glutamate toxicity in cultured cortical neurones (MTT test). Type of data set: cell-based, rat. The settings on record: words. On the procedure: Cortical neurones were obtained from cerebral cortices of 17/18 day old fetal rats (Wistar), in general following the dissociation procedure described by. After short trypsinization and gentle trituration with fire-polished Pasteur pipettes, the cell suspension was washed by centrifugation. Cells were suspended in serum-free Neurobasal medium with B27 supplement (GIBCO) before plating onto poly-L-lysine (Sigma; 0.2mg/ml, 20 h, 4° C.) and laminin (Sigma; 2 μg/ml, 1h, 37° C.)-coated 96-well plates (Falcon, Primaria) at a density of 5×10^4 cells/well. Cortical neurones were maintained at 37° C. in humidified 10% CO2 /90% air. […]
Exposure to EAA was performed in serum-free Neurobasal medium containing 100 μM glutamate and the drug to be tested. After 20 h of incubation, the cytotoxic effect was morphologically examined under a phase contrast microscope and biochemically quantified by measuring cell viability with the MTT test (Promega). […] These samples were then read using an Elisa plate reader (Thermomax, MWG Biotech) at a wavelength of 570 nm. […]
IC50 s in patch clamp, excitotoxicity, and binding studies were calculated according to the four parameter alogistic equation using the Grafit computer program (Erithacus Software, England). Ki value for binding studies were then determined according to Cheng and Prusoff. […]

The nature of data set [5]: Traction reflex test (myorelaxant action). The settings on record: mouse, traction reflex versus mes, ip; mice, i.p.; Table 8; read-out: TI Tract. (ED50 traction reflex impairment / ED50 MES). Type of data set: in vivo. How it is done: as §1
as §2, with “(TI). […]” for “(TI).”

Data set [6] is described as follows: Rotarod test (motor coordination, ataxia). Conditions: mouse, rotarod versus mes, ip; mice, i.p.; Table 8; read-out: TI Rot. (ED50 rotarod failure / ED50 MES). In kind it is in vivo. How it is done:
as §4, §2, §3

For data set [7], the target named is NMDA receptor. The experiment in a line: [3H]-(+)-MK-801 receptor binding to rat cortical membranes. Conditions: read-out: [3H]MK-801 IC50, [3H]-(+)-MK-801 5 nM, Table 7. On the procedure:
Male Sprague-Dawley rats (200-250 g) were decapitated and their brains were removed rapidly. The cortex was dissected and homogenized in 20 volumes of ice-cold 0.32 M sucrose using a glass-Teflon homogenizer. The homogenate was centrifuged at 1000×g for 10 minutes. The pellet was discarded and the supernatant centrifuged at 20,000×g for 20 minutes. The resulting pellet was re-suspended in 20 volumes of distilled water and centrifuged for 20 minutes at 8000×g. Then the supernatant and the buffy coat were centrifuged three times (48,000×g for 20 minutes) in the presence of 50 mM Tris-HCl, pH 8.0. All centrifugation steps were carried out at 4° C. After resuspension in 5 volumes of 50 mM Tris-HCl, pH 8.0 the membrane suspension was frozen rapidly at -80° C. On the day of assay the membranes were thawed and washed four times by resuspension in 50 mM Tris-HCl, pH 8.0 and centrifugation at 48,000×g for 20 minutes. The final pellet was suspended in assay buffer. The amount of protein in the final membrane preparation was determined according to the method of Lowry with some modifications. The final protein concentration used for our studies was between 250-500 μg/ml.
Membranes were re-suspended and incubated in 50 mM Tris-HCl, pH 8.0. […] Incubations were terminated using a Millipore filter system. The samples were rinsed three times with 2.5 ml ice cold assay buffer over glass fiber filters obtained from Schleicher & Schuell under a constant vacuum. Filtration was performed as rapidly as possible. Following separation and rinse, the filters were placed into scintillation liquid (5 ml; Ultima Gold) and radioactivity retained on the filters was determined with a conventional liquid scintillation counter (Hewlett Packard, Liquid Scintillation Analyser).
IC50 s in patch clamp, excitotoxicity, and binding studies were calculated according to the four parameter alogistic equation using the Grafit computer program (Erithacus Software, England). Ki value for binding studies were then determined according to Cheng and Prusoff. Binding values presented are means ±SEM of 3-5 determinations (each performed in duplicate).

Data set [8] is described as follows: Solubility (analytical certificates). Type of data set: physicochemical.

Structures can show the parent of a compound that is named as a salt.

One may read the IC50 as the concentration that gives 50% inhibition.

Regarding `NC12CC3CC(CC(C3)C1)C2` [Amantadine, reference compound], the “MES ED50” value in data set [1] was 184.0 mg/kg i.p. In addition, the side effects entry in the data set on NMDA receptor [2] is reported as “rarely produce side effects at the therapeutic doses”.
With `C[C@]12N[C@H](Cc3ccccc31)c1ccccc12` [MK-801, (+)-5-methyl-10,11-dihydro-5H-dibenzocyclohepten-5,10-imine maleate, reference compound], the “MES ED50” value in data set [1] was 0.16 mg/kg i.p. In addition, the side effects entry with NMDA receptor [2] is given as “some psychotropic side effects were apparent at therapeutic doses”.
Turning to `CC1(C)CC(C)(C)CC(C)(N2CCCC2)C1.Cl` [MRZ 2/705, N-(1,3,3,5,5-Pentamethylcyclohexyl) pyrrolidine hydrochloride], the “TI Tract. (ED50 traction reflex impairment / ED50 MES)” value with traction reflex in mice is recorded as 3.9. In addition, the “TI Rot. (ED50 rotarod failure / ED50 MES)” value in data set [3] worked out at 5.4. Also, in data set [4], the “Min Lethality” value is listed as more than 50 mg/kg.
Consider `CC12CC3CC(C)(C1)CC(N)(C3)C2` [Memantine, reference compound], for which the “TI Tract. (ED50 traction reflex impairment / ED50 MES)” value in the data set on traction reflex in mice stood at 2.9. Further, in the data set on NMDA receptor [2], the side effects result is “rarely produce side effects at the therapeutic doses”.
Regarding `CC1(C)CC(C)(C)CC(C)(N)C1` [Mrz 2/579, 1-amino-1,3,3,5,5-pentamethylcyclohexane], the neuroprotection in vitro entry in the data set on cortical neurones is “most potent”. Moreover, the selectivity ratio in data set [5] came out at 2.9; in data set [6], 5. In data set [4], the “Min Lethality” value is on record as 108 mg/kg.
Regarding `CCC1(N)CC(C)(C)CC(C)(C)C1` [Mrz 2/600, 1-amino-1-ethyl-3,3,5,5-tetramethylcyclohexane], the IC50 on NMDA receptor [7] turned out to be 24 µM. The selectivity ratio is 0.6 in data set [5] and 0.9 in [6]. Also, the “Min Lethality” value in data set [4] amounted to 50 mg/kg.
Take `CC1CC(C)CC(C)(N)C1` (centres unmarked) [Mrz 2/616, 1-amino-1,3,5-trimethylcyclohexane]: the IC50 on NMDA receptor [7] is 150 µM. In addition, the selectivity ratio in [5] was found to be 1; in [6], 1.4. Also, the Solubility entry in [8] is listed as “soluble in water, chloroform”. The “Min Lethality” value in data set [4] is reported as more than 50 mg/kg.
Regarding `CC1(C)CCCC(C)(N)C1` (centres unmarked) [Mrz 2/621], the “MES ED50” value in data set [1] amounted to 36.9 mg/kg i.p. Moreover, the “TI Tract. (ED50 traction reflex impairment / ED50 MES)” value with traction reflex in mice came out at 1.8. The “TI Rot. (ED50 rotarod failure / ED50 MES)” value in data set [3] was determined as 1.5. Besides, the “Min Lethality” value in data set [4] was more than 60 mg/kg.

The values above are taken from patent US6071966A, “1-amino-alkylcyclohexane NMDA receptor antagonists” (Merz + Co. GmbH & Co., priority 1998, dated 2000).
